Test results as given in DBAASP.
Values after ≈ are worked out from the molar mass of the structure shown.

Assays:
Experiment in all cases: ≥ marks a high value that may be exact or a test limit, other limits are often not marked, values filed in µg/mL are converted to µM
[1] = tested on: Klebsiella pneumoniae ATCC 13883
[2] = tested on: Acinetobacter baumannii ATCC 19606
[3] = tested on: Pseudomonas aeruginosa ATCC 27853
[4] = tested on: Saccharomyces cerevisiae
[5] = tested on: Staphylococcus aureus ATCC 25923
[6] = tested on: Staphylococcus aureus ATCC BAA-44
[7] = tested on: Candida parapsilosis ATCC 22019
[8] = tested on: Streptococcus pyogenes ATCC 19615
[9] = tested on: Listeria ivanovii
[10] = tested on: Enterococcus faecalis ATCC 29212
[11] = tested on: Escherichia coli ATCC 25922
[12] = tested on: Candida albicans ATCC 90028
[13] = tested on: Staphylococcus epidermidis NRRL B-4268
[14] = tested on: Staphylococcus aureus MR
[15] = tested on: Trichophyton mentagrophytes
[16] = tested on: Candida albicans
[17] = tested on: Bacillus subtilis ATCC 6633
[18] = tested on: Staphylococcus aureus ATCC 9144
[19] = tested on: Sporothrix schenckii
[20] = tested on: Cryptococcus neoformans
[21] = tested on: Klebsiella pneumoniae ATCC 27736
[22] = tested on: Aspergillus fumigatus
[23] = tested on: Escherichia coli ATCC 10536
[24] = tested on: Pseudomonas aeruginosa ATCC BAA-427
[25] = tested on: Streptococcus sp. Group C
[26] = tested on: Staphylococcus saprophyticus
[27] = tested on: Staphylococcus aureus ATCC 29213
[28] = tested on: Escherichia coli ESBL
[29] = tested on: Staphylococcus epidermidis
[30] = tested on: Staphylococcus aureus ATCC 43300
[31] = tested on: Staphylococcus haemolyticus
[32] = tested on: Escherichia coli
[33] = tested on: Streptococcus pyogenes
[34] = tested on: Escherichia coli ATCC 35218
[35] = tested on: Pseudomonas aeruginosa
[36] = tested on: Streptococcus sp. Group G
[37] = tested on: Staphylococcus aureus
[38] = tested on: Escherichia coli O157:H7
[39] = tested on: Lysinibacillus sphaericus TISTR 678
[40] = tested on: Salmonella enterica subsp. enterica serovar Typhi ATCC 5784
[41] = tested on: Vibrio cholerae
[42] = tested on: Salmonella enterica subsp. enterica serovar Typhi
[43] = tested on: Bacillus megaterium
[44] = tested on: Bacillus subtilis ATCC 19659
[45] = tested on: Cryptococcus neoformans ATCC 90012
[46] = tested on: Candida krusei ATCC 6258

## CC[C@H](C)[C@H](NC(=O)[C@H](CCCN=C(N)N)NC(=O)[C@H](CCCN=C(N)N)NC(=O)[C@H](CC(C)C)NC(=O)[C@H](Cc1ccccc1)NC(=O)[C@H](Cc1ccccc1)NC(=O)[C@@H](N)Cc1ccccc1)C(=O)N[C@@H](Cc1ccccc1)C(=O)O [FFFLRRIF]
[1]
  MIC: ≥ 100 µM
[2]
  MIC: > 100 µM
[3]
  MIC: > 100 µM
[4]
  MIC: ≥ 100 µM
[5]
  MIC: 100 µM (≈ 115 µg/mL)
[6]
  MIC: ≥ 100 µM
[7]
  MIC: ≥ 100 µM
[8]
  MIC: ≥ 50 µM
[9]
  MIC: ≥ 100 µM
[10]
  MIC: > 100 µM
[11]
  MIC: > 100 µM
[12]
  MIC: ≥ 100 µM

## CC(C)C[C@H](NC(=O)[C@H](CCCCN)NC(=O)[C@H](CC(C)C)NC(=O)[C@@H](NC(=O)[C@H](CCCN=C(N)N)NC(=O)[C@H](CCCN=C(N)N)NC(=O)[C@@H](NC(=O)[C@H](Cc1c[nH]c2ccccc12)NC(=O)[C@H](CCCCN)NC(=O)[C@H](CCCN=C(N)N)NC(=O)[C@@H](NC(=O)[C@H](CCCN=C(N)N)NC(=O)[C@H](CCCN=C(N)N)NC(=O)[C@@H](N)C(C)C)C(C)C)C(C)C)C(C)C)C(=O)N[C@H](C(N)=O)C(C)C [VRRVRKWVRRVLKLV]
[13]
  MIC: 6 µM (≈ 11.8 µg/mL)
[14]
  MIC: 12.5 µM (≈ 24.5 µg/mL)
[15]
  MIC: 6 µM (≈ 11.8 µg/mL)
[16]
  MIC: 9.6 µM (≈ 18.8 µg/mL)
[17]
  MIC: 6.8 µM (≈ 13.3 µg/mL)
[18]
  MIC: 5.1 µM (≈ 10 µg/mL)
[7]
  MIC: 1.5 µM (≈ 2.94 µg/mL)
[19]
  MIC: 6 µM (≈ 11.8 µg/mL)
[20]
  MIC: 8.4 µM (≈ 16.5 µg/mL)
[21]
  MIC: 3.2 µM (≈ 6.28 µg/mL)
[22]
  MIC: 8.4 µM (≈ 16.5 µg/mL)
[23]
  MIC: 3 µM (≈ 5.89 µg/mL)
[24]
  MIC: 3.2 µM (≈ 6.28 µg/mL)

## NC(=O)[C@H](Cc1c[nH]c2ccccc12)NC(=O)[C@H](Cc1c[nH]c2ccccc12)NC(=O)[C@H](Cc1c[nH]c2ccccc12)NC(=O)[C@H](Cc1c[nH]c2ccccc12)NC(=O)[C@@H]1CCCN1C(=O)[C@H](CCCN=C(N)N)NC(=O)[C@@H]1CCCN1C(=O)[C@H](CCCN=C(N)N)NC(=O)[C@@H]1CCCN1C(=O)[C@H](CCCN=C(N)N)NC(=O)[C@@H]1CCCN1C(=O)[C@H](CCCN=C(N)N)NC(=O)[C@@H](N)CCCN=C(N)N [RRPRPRPRPWWWW]
[25]
  MIC: 4.14 µM (≈ 8 µg/mL)
[26]
  MIC: ≥ 33.1 µM
[3]
  MIC: 33.1 µM (≈ 64 µg/mL)
[27]
  MIC: 8.28 µM (≈ 16 µg/mL)
[28]
  MIC: 16.6 µM (≈ 32 µg/mL)
[29]
  MIC: 4.14 µM (≈ 8 µg/mL)
[30]
  MIC: 8.28 µM (≈ 16 µg/mL)
[31]
  MIC: 4.14 µM (≈ 8 µg/mL)
[32]
  MIC: 8.28 µM (≈ 16 µg/mL)
[8]
  MIC: 8.28 µM (≈ 16 µg/mL)
[33]
  MIC: 11.7 µM (≈ 22.6 µg/mL)
[11]
  MIC: 8.28 µM (≈ 16 µg/mL)
[34]
  MIC: 8.28 µM (≈ 16 µg/mL)
[35]
  MIC: 66.2 µM (≈ 128 µg/mL)
[36]
  MIC: 11.7 µM (≈ 22.6 µg/mL)
[37]
  MIC: 11.7 µM (≈ 22.6 µg/mL)

## CC(C)C[C@H](NC(=O)CNC(=O)[C@H](C)NC(=O)[C@H](CCCCN)NC(=O)[C@H](CCCCN)NC(=O)[C@@H](N)CC(N)=O)C(=O)N[C@@H](Cc1ccccc1)C(=O)N[C@H](C(=O)N[C@H](C(=O)N[C@@H](CCC(N)=O)C(=O)N[C@@H](Cc1ccccc1)C(=O)N1CCC[C@H]1C(=O)N[C@@H](CCCCN)C(=O)N[C@@H](CCCCN)C(=O)N[C@@H](Cc1ccc(O)cc1)C(=O)O)C(C)C)C(C)C [NKKAGLFVVQFPKKY]
[38]
  MIC: ≥ 64 µM
[39]
  MIC: ≥ 64 µM
[40]
  MIC: ≥ 64 µM
[41]
  MIC: ≥ 52 µM
[42]
  MIC: ≥ 64 µM
[43]
  MIC: 28.3 µM (≈ 50 µg/mL)

## CC[C@H](C)[C@H](NC(=O)[C@H](C)NC(=O)CNC(=O)[C@H](Cc1ccccc1)NC(=O)[C@@H](NC(=O)[C@@H](N)CC(=O)O)[C@@H](C)CC)C(=O)N[C@@H](Cc1c[nH]c2ccccc12)C(=O)N1CCC[C@H]1C(=O)N[C@@H](CC(C)C)C(=O)N[C@@H](C)C(=O)N[C@@H](CC(C)C)C(=O)NCC(=O)N[C@@H](C)C(=O)N[C@@H](CC(C)C)C(=O)N[C@@H](CCCCN)C(=O)N[C@@H](CC(N)=O)C(=O)N[C@@H](CC(C)C)C(=O)N[C@H](C(=O)N[C@@H](CCCCN)C(N)=O)[C@@H](C)CC [DIFGAIWPLALGALKNLIK]
[3]
  MIC: > 128 µM
[5]
  MIC: 8 µM (≈ 16.4 µg/mL)
[7]
  MIC: 16 µM (≈ 32.8 µg/mL)
[44]
  MIC: 4 µM (≈ 8.21 µg/mL)
[45]
  MIC: 16 µM (≈ 32.8 µg/mL)
[46]
  MIC: 16 µM (≈ 32.8 µg/mL)
[11]
  MIC: > 128 µM
[12]
  MIC: 16 µM (≈ 32.8 µg/mL)
